Results on three compounds are retold here after EP1487840B1 (Pfizer Italia S.r.l., priority 2002, dated 2003).

Data set [1] in a line: physchem. As to conditions: thermodynamic from solid, room temperature; for solubility thermodynamic at 24 h: Irinotecan hydrocholoride concentration; for solubility: no time given.
Procedure: (§1) The pH is adjusted to the final value with NaOH 1N). An excess solid was put in glass flasks in the presence of the appropriate dissolution media and the suspensions were shaken at room temperature for 24 hours. Samples were withdrawn after 15, 30, 45, 60 min and 24 hours, filtered and analyzed by means of HPLC assay.
For data set [2] the following is noted: pH 1.2.
Procedure: as §1
The conditions of data set [3]: relative to CPT-11; cited from earlier work.

The structures appear in SMILES notation. Counter-ions that a name gives are not always drawn. A value given as a limit tells only on which side of the number the result lay.

As to `CCc1c2c(nc3ccc(OC(=O)N4CCC(N5CCCCC5)CC4)cc13)-c1cc3c(c(=O)n1C2)COC(=O)[C@]3(O)CC` [Form b, (S) -4,11-Diethyl-3,4,12,14-tetrahydro-4-hydroxy-3,14-dioxo-1 H-pyrano[3',4':6,7]-indolizino[1,2-b]quinolin-9-yl[1,4'-bipiperidine]-1'-carboxylate hydrochloride], the solubility (thermodynamic) at 24 h in data set [1] (deionized water, water, a = deionized water) is 11200 µg/mL; in data set [1] (pH 1.2 buffer, pH 1.2, simulated gastric fluid, b = pH 1.2 buffer) it was 260 µg/mL. The solubility in data set [1] (deionized water, water, Water solubility, in water) is about 10000 µg/mL; in data set [1] (lactic acid buffer of CAMPTOSAR INJECTION, pH 3.5, aqueous buffer, solubility), 10000 µg/mL. This compound also gave a thermodynamic solubility in data set [1] (pH 3.5, aqueous buffer, equilibrium solubility, pH value of about 3.5) of under 20000 µg/mL.
Turning to `CCc1c2c(nc3ccc(OC(=O)N4CCC(N5CCCCC5)CC4)cc13)-c1cc3c(c(=O)n1C2)COC(=O)[C@]3(O)CC` [Form c, (S)-4,11-Diethyl-3,4,12,14-tetrahydro-4-hydroxy-3,14=dioxo-1 H-pyrano[3',4':6,7]-indolizino[1,2-b]quinolin-9-yl [1,4'-bipiperidine]-1'-carboxylate (irinotecan) hydrochloride], in data set [2], the “more soluble with respect to Form b” value was 2 orders of magnitude.
In the case of `CCc1c2c(nc3ccc(O)cc13)-c1cc3c(c(=O)n1C2)COC(=O)[C@]3(O)CC` [SN-38, 7-ethyl-10-hydroxy 20 (S) camptothecin], in data set [3], the “more cytotoxic than CPT-11” value is 100 fold.

The term thermodynamic solubility denotes solubility found after equilibrating the solid with the medium. Usually solubility stands for the dissolved amount per volume that the medium holds.
